Measured values published in PubChem BioAssay AID248 (DTP/NCI, 2004).
Where “and” joins values, the source holds several entries; their conditions need not be identical. Identical values can stand only once. Inconclusive results and toxic doses are left out. Cut-off read from the data, not from the text of the source: active = T/C of 150% or more; inactive = T/C below 125%.

System: L1210 leukemia ip in BDF1 mice, survival T/C
Test: NCI In Vivo Anticancer Drug Screen. Data for tumor model L1210 Leukemia (intraperitoneal) in B6D2F1 (BDF1) mice
Details: endpoint: mean survival time, higher = longer survival
Outline: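 Each compound was tested against a transplantable tumor grown in mice. The endpoint was survival, with treated animals benchmarked against vehicle controls as a simple ratio.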

[1] = dose: 50.0 mg/kg/injection, schedule: Q01DX009 (ip), vehicle: Klucel (hydroxypropylcellulose) (HPC)
[2] = dose: 100.0 mg/kg/injection, schedule: Q01DX001 (ip), vehicle: saline
[3] = dose: 100.0 mg/kg/injection, schedule: Q01DX009 (ip), vehicle: Klucel (hydroxypropylcellulose) (HPC)
[4] = dose: 200.0 mg/kg/injection, schedule: Q01DX001 (ip), vehicle: saline
[5] = dose: 200.0 mg/kg/injection, schedule: Q01DX009 (ip), vehicle: Klucel (hydroxypropylcellulose) (HPC)
[6] = dose: 100.0 mg/kg/injection, schedule: Q04DX003 (ip), vehicle: saline with Tween-80
[7] = dose: 200.0 mg/kg/injection, schedule: Q04DX003 (ip), vehicle: saline with Tween-80
[8] = dose: 400.0 mg/kg/injection, schedule: Q01DX001 (ip), vehicle: saline
[9] = dose: 50.0 mg/kg/injection, schedule: Q04DX003 (ip), vehicle: Klucel (hydroxypropylcellulose) (HPC)
[10] = dose: 100.0 mg/kg/injection, schedule: Q04DX003 (ip), vehicle: Klucel (hydroxypropylcellulose) (HPC)
[11] = dose: 200.0 mg/kg/injection, schedule: Q04DX003 (ip), vehicle: Klucel (hydroxypropylcellulose) (HPC)

Measured: T/C

Cc1nc(N)[nH]c(=O)c1CCCNc1ccc(CCC(=O)CCl)cc1
inactive: dose: 50.0 mg/kg/injection, schedule: Q01DX Z (ip), vehicle: carboxymethylcellulose (CMC) 94 % of control | dose: 100.0 mg/kg/injection, schedule: Q01DX Z (ip), vehicle: carboxymethylcellulose (CMC) 94 % of control | dose: 200.0 mg/kg/injection, schedule: Q01DX Z (ip), vehicle: carboxymethylcellulose (CMC) 86 % of control

COc1ccc(C(=O)NC(SC)C(N)=O)cc1 (configuration not stated)
inactive: dose: 100.0 mg/kg/injection, schedule: Q04DX002 (ip), vehicle: Klucel (hydroxypropylcellulose) (HPC) 90 % of control | dose: 200.0 mg/kg/injection, schedule: Q04DX002 (ip), vehicle: Klucel (hydroxypropylcellulose) (HPC) 101 % of control | dose: 400.0 mg/kg/injection, schedule: Q04DX002 (ip), vehicle: Klucel (hydroxypropylcellulose) (HPC) 93 % of control

O=C(O)c1ccccc1NC(=S)c1ccccc1
inactive: dose: 25.0 mg/kg/injection, schedule: Q04DX002 (ip), vehicle: other 96 % of control | dose: 50.0 mg/kg/injection, schedule: Q04DX002 (ip), vehicle: other 96 % of control | dose: 100.0 mg/kg/injection, schedule: Q04DX002 (ip), vehicle: other 93 % of control and 104 % of control

O=C1OC(c2ccccc2)=N/C1=C/c1ccc(OCc2ccccc2)c(OCc2ccccc2)c1
inactive: dose: 100.0 mg/kg/injection, schedule: Q01DX001 (ip), vehicle: saline with Tween-80 91 % of control | dose: 200.0 mg/kg/injection, schedule: Q01DX001 (ip), vehicle: saline with Tween-80 95 % of control | dose: 400.0 mg/kg/injection, schedule: Q01DX001 (ip), vehicle: saline with Tween-80 86 % of control

NC(N)=N/N=C(\c1ccccc1)C(O)c1ccccc1 (configuration not stated)
inactive: dose: 15.0 mg/kg/injection, schedule: Q01DX Z (ip), vehicle: carboxymethylcellulose (CMC) 106 % of control | dose: 30.0 mg/kg/injection, schedule: Q01DX Z (ip), vehicle: carboxymethylcellulose (CMC) 101 % of control | dose: 60.0 mg/kg/injection, schedule: Q01DX Z (ip), vehicle: carboxymethylcellulose (CMC) 102 % of control | dose: 60.0 mg/kg/injection, schedule: Q01DX Z (oral), vehicle: carboxymethylcellulose (CMC) 96 % of control | dose: 120.0 mg/kg/injection, schedule: Q01DX Z (ip), vehicle: carboxymethylcellulose (CMC) 98 % of control | dose: 120.0 mg/kg/injection, schedule: Q01DX Z (oral), vehicle: carboxymethylcellulose (CMC) 90 % of control | dose: 240.0 mg/kg/injection, schedule: Q01DX Z (oral), vehicle: carboxymethylcellulose (CMC) 90 % of control | dose: 480.0 mg/kg/injection, schedule: Q01DX Z (oral), vehicle: carboxymethylcellulose (CMC) 93 % of control

CCCCCCC(=O)OCc1ccc(-c2ccccc2)cc1
inactive: dose: 75.0 mg/kg/injection, schedule: Q01DX001 (ip), vehicle: saline 90 % of control | dose: 150.0 mg/kg/injection, schedule: Q01DX001 (ip), vehicle: saline 87 % of control | dose: 300.0 mg/kg/injection, schedule: Q01DX001 (ip), vehicle: saline 92 % of control

CN(C)C/C(=N\O)c1ccc(Cl)cc1
inactive: [1] 93 % of control | [2] 97 % of control | [3] 93 % of control | [4] 100 % of control | [5] 100 % of control

Cc1ccc(OCCBr)cc1
inactive: [3] 93 % of control | [6] 100 % of control | [5] 101 % of control | [7] 107 % of control | dose: 400.0 mg/kg/injection, schedule: Q04DX003 (ip), vehicle: saline with Tween-80 98 % of control

CC/C(=C(\CC)c1ccc(OCCOS(=O)(=O)c2ccccc2)cc1)c1ccc(OCCOS(=O)(=O)c2ccccc2)cc1
inactive: dose: 12.5 mg/kg/injection, schedule: Q04DX002 (ip), vehicle: saline 101 % of control | dose: 25.0 mg/kg/injection, schedule: Q04DX002 (ip), vehicle: saline 101 % of control | dose: 50.0 mg/kg/injection, schedule: Q04DX002 (ip), vehicle: saline 101 % of control

O=C(O)COc1ccc(Cl)cc1CC(=O)O
inactive: dose: 50.0 mg/kg/injection, schedule: Q04DX002 (ip), vehicle: saline with Tween-80 99 % of control | dose: 100.0 mg/kg/injection, schedule: Q04DX002 (ip), vehicle: saline with Tween-80 100 % of control and 105 % of control | dose: 200.0 mg/kg/injection, schedule: Q04DX002 (ip), vehicle: saline with Tween-80 99 % of control and 103 % of control | dose: 400.0 mg/kg/injection, schedule: Q04DX002 (ip), vehicle: saline with Tween-80 103 % of control

O=C(/C=C/c1ccccc1)c1ccc(N=Cc2ccccc2)cc1
inactive: dose: 50.0 mg/kg/injection, schedule: Q01DX001 (ip), vehicle: saline 94 % of control | [2] 94 % of control | [4] 90 % of control | [8] 105 % of control

CC1=C(Br)C(=O)C(c2c(C)cc(C)c(Br)c2C)=C(Br)C1=O
inactive: [9] 111 % of control | dose: 100.0 mg/kg/injection, schedule: Q01DX001 (ip), vehicle: Klucel (hydroxypropylcellulose) (HPC) 89 % of control | [10] 92 % of control | dose: 200.0 mg/kg/injection, schedule: Q01DX001 (ip), vehicle: Klucel (hydroxypropylcellulose) (HPC) 87 % of control | [11] 94 % of control

CCOC(=O)c1cnc(SC)nc1Nc1ccccc1Cl
inactive: [6] 87 % of control | [7] 87 % of control

O=C(COc1ccc(Cl)c(Cl)c1)N(Cc1ccccc1)Cc1ccc[n+](Cc2ccc(S(=O)(=O)F)cc2)c1
inactive: [6] 102 % of control | [7] 96 % of control

Cc1cc(-n2cnc3c(Cl)ncnc32)ccc1[N+](=O)[O-]
inactive: dose: 50.0 mg/kg/injection, schedule: Q01DX001 (ip), vehicle: carboxymethylcellulose (CMC) 110 % of control | dose: 100.0 mg/kg/injection, schedule: Q01DX001 (ip), vehicle: carboxymethylcellulose (CMC) 101 % of control | dose: 200.0 mg/kg/injection, schedule: Q01DX001 (ip), vehicle: carboxymethylcellulose (CMC) 98 % of control | dose: 400.0 mg/kg/injection, schedule: Q01DX001 (ip), vehicle: carboxymethylcellulose (CMC) 112 % of control

CCC(N)Cc1ccc(OC)c(OC)c1 (configuration not stated)
inactive: dose: 100.0 mg/kg/injection, schedule: Q01DX009 (ip), vehicle: saline 98 % of control | dose: 100.0 mg/kg/injection, schedule: Q04DX003 (ip), vehicle: saline 93 % of control | dose: 200.0 mg/kg/injection, schedule: Q01DX009 (ip), vehicle: saline 98 % of control | dose: 200.0 mg/kg/injection, schedule: Q04DX003 (ip), vehicle: saline 97 % of control

O=[N+]([O-])c1cc(S(=O)(=O)c2ccc(Nc3ccccc3)c([N+](=O)[O-])c2)ccc1Nc1ccccc1
inactive: dose: 100.0 mg/kg/injection, schedule: Q04DX002 (ip), vehicle: gum acacia 93 % of control | dose: 200.0 mg/kg/injection, schedule: Q04DX002 (ip), vehicle: gum acacia 103 % of control | dose: 400.0 mg/kg/injection, schedule: Q04DX002 (ip), vehicle: gum acacia 97 % of control

Nc1cc(C(=O)O)c2ccccc2c1
inactive: [2] 89 % of control | [4] 106 % of control | [8] 95 % of control

COC1=CCC2=C(C1)CC(C)O2 (configuration not stated)
inactive: dose: 100.0 mg/kg/injection, schedule: Q04DX003 (ip), vehicle: acetone 93 % of control | dose: 200.0 mg/kg/injection, schedule: Q04DX003 (ip), vehicle: acetone 102 % of control | dose: 400.0 mg/kg/injection, schedule: Q04DX003 (ip), vehicle: acetone 93 % of control

COc1ccc(-c2nc(N)ncc2CSC)cc1
inactive: [6] 101 % of control | [7] 86 % of control

CCCCCOC(=O)C1(C)OC1c1ccccc1 (configuration not stated)
inactive: dose: 100.0 mg/kg/injection, schedule: Q04DX002 (ip), vehicle: saline 108 % of control | dose: 200.0 mg/kg/injection, schedule: Q04DX002 (ip), vehicle: saline 93 % of control | dose: 400.0 mg/kg/injection, schedule: Q04DX002 (ip), vehicle: saline 93 % of control

COc1ccc(/C=C/c2cnc3ccccc3n2)cc1OC
inactive: [3] 91 % of control | [10] 98 % of control | [5] 100 % of control | [11] 93 % of control | dose: 400.0 mg/kg/injection, schedule: Q01DX009 (ip), vehicle: Klucel (hydroxypropylcellulose) (HPC) 92 % of control | dose: 400.0 mg/kg/injection, schedule: Q04DX003 (ip), vehicle: Klucel (hydroxypropylcellulose) (HPC) 97 % of control

O=C(NC1CCCCC1)Sc1ccc(Cl)cc1
inactive: dose: 25.0 mg/kg/injection, schedule: Q01DX009 (ip), vehicle: Klucel (hydroxypropylcellulose) (HPC) 104 % of control | dose: 25.0 mg/kg/injection, schedule: Q04DX003 (ip), vehicle: Klucel (hydroxypropylcellulose) (HPC) 94 % of control | [1] 103 % of control | [9] 102 % of control | [3] 98 % of control | [10] 100 % of control and 108 % of control
